Source: US8058475B2, “Substituted cyclohexylmethyl compounds” (Gruenenthal GmbH, priority 2005, dated 2011)
pKi: −log10 of the molar value. Where two headings read alike, the source gives them in different places.

Target: human μ-opiate receptor (Homo sapiens, UniProt P35372)
Test: Affinity for the human μ-opiate receptor ([3H]-naloxone displacement, SPA, CHO-K1 membrane preparation)
Assay type: binding
Conditions: for inhibition at 1 µM: read-out: μ-Opioid receptor, % inhibition [1 μM]; for pKi: read-out: μ-Opioid receptor, Ki
[1] = 1 μM test substance, inhibition of specific [3H]-naloxone binding

Chain of human μ-opiate receptor (P35372 whole entry): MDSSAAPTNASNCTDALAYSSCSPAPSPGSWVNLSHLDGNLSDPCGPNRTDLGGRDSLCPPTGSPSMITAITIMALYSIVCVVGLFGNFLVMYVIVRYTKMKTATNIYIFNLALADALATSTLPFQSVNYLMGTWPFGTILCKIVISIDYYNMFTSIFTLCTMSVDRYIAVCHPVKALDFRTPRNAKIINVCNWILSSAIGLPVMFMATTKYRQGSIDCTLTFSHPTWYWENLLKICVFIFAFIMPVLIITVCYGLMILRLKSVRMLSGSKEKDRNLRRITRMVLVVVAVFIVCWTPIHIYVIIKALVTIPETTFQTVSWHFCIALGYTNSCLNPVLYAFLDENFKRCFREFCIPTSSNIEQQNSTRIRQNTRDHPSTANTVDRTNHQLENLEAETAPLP

Compound	inhibition at 1 µM	pKi	inhibition at 1 µM [1]	μ-Opioid receptor, % inhibition [1 μM] (1 µM)
Cc1nc(-c2ccccc2)sc1C(=O)NC1CCC(C(c2ccccc2)N(C)C)CC1 (stereo not drawn) [compound 238, 4-methyl-2-phenyl-thiazole-5-carboxylic acid [4-(dimethylamino-phenyl-methyl)-cyclohexyl]-amide]	83%	7.42		
Cc1ccccc1C(=O)NCC1CCC(C(c2cccc(F)c2)N(C)C)CC1 (stereo not drawn) [compound 384, N-{4-[dimethylamino-(3-fluoro-phenyl)-methyl]-cyclohexylmethyl}-2-methyl-benzamide]	82%	7.42		
CN(C)C(c1ccc(Cl)cc1)C1CCC(CCNC(=O)c2ccccc2Br)CC1 (stereo not drawn) [compound 395, 2-bromo-N-(2-{4-[(4-chloro-phenyl)-dimethylamino-methyl]-cyclohexyl}-ethyl)-benzamide]	81%	7.34		
CN(C)C(c1cccc(F)c1)C1CCC(CCNC(=O)c2ccccc2Cl)CC1 (stereo not drawn) [compound 404, 2-chloro-N-(2-{4-[dimethylamino-(3-fluoro-phenyl)-methyl]-cyclohexyl}-ethyl)-benzamide]	97%	7.72		
CN(C)C(c1cccs1)C1CCC(CNC(=O)c2cccc(Br)c2)CC1 (stereo not drawn) [compound 307, 3-bromo-N-[4-(dimethylamino-thiophen-2-yl-methyl)-cyclohexylmethyl]-benzamide]	98%	8.21		
CN(C)C(c1ccc(Cl)cc1)C1CCC(CCNC(=O)c2ccc(F)cc2F)CC1 (stereo not drawn) [compound 436, N-(2-{4-[(4-chloro-phenyl)-dimethylamino-methyl]-cyclohexyl}-ethyl)-2,4-difluoro-benzamide]	91%	7.54		
CN(C)C(c1ccccc1)C1CCC(NC(=O)Cc2cccs2)CC1 (stereo not drawn) [compound 255, N-[4-(dimethylamino-phenyl-methyl)-cyclohexyl]-2-thiophen-2-yl-acetamide]	80%	7.34		
CN(C)C(c1ccccc1)C1CCC(CNC(=O)c2cccc(Cl)c2)CC1 (stereo not drawn) [compound 331, 3-chloro-N-[4-(dimethylamino-phenyl-methyl)-cyclohexylmethyl]-benzamide]	93%	7.96		
CN(C)C(c1ccccc1)C1CCC(CCNC(=O)c2ccc(Cl)c(Cl)c2)CC1 (stereo not drawn) [compound 416, 3,4-dichloro-N-{2-[4-(dimethylamino-phenyl-methyl)-cyclohexyl]-ethyl}-benzamide]	86%	7.72		
CN(C)C(c1ccccc1)C1CCC(CNC(=O)c2cccnc2Oc2ccc(Cl)cc2)CC1 (single isomer, unassigned) [compound 360, 2-(4-chloro-phenoxy)-N-[4-(dimethylamino-phenyl-methyl)-cyclohexylmethyl]-nicotinamide]	86%	7.46		
Cc1oc(-c2ccc(Cl)cc2)cc1C(=O)NC1CCC(C(c2ccccc2)N(C)C)CC1 (stereo not drawn) [compound 232, 5-(4-chloro-phenyl)-2-methyl-furan-3-carboxylic acid [4-(dimethylamino-phenyl-methyl)-cyclohexyl]-amide]	84%	7.13		
COc1c(C(=O)NCCC2CCC(C(c3ccccc3)N(C)C)CC2)csc1Cl (stereo not drawn) [compound 474, 5-chloro-4-methoxy-thiophene-3-carboxylic acid {2-[4-(dimethylamino-phenyl-methyl)-cyclohexyl]-ethyl}-amide]	100%	8.57		
CC(C)S(=O)(=O)c1csc(C(=O)NCC2CCC(C(c3cccs3)N(C)C)CC2)c1Cl (stereo not drawn) [compound 367, 3-chloro-4-(propane-2-sulfonyl)-thiophene-2-carboxylic acid [4-(dimethylamino-thiophen-2-yl-methyl)-cyclohexylmethyl]-amide]	85%	6.96		
Cc1ccc(C(=O)NC2CCC(C(c3ccccc3)N(C)C)CC2)cc1 (stereo not drawn) [compound 242, N-[4-(dimethylamino-phenyl-methyl)-cyclohexyl]-4-methyl-benzamide]	82%	7.34		
CN(C)C(c1cccc(F)c1)C1CCC(O)(c2ccc(Cl)c(C(F)(F)F)c2)CC1 (stereo not drawn) [compound 157, 1-(4-chloro-3-trifluoromethyl-phenyl)-4-[dimethylamino-(3-fluoro-phenyl)-methyl]-cyclohexanol]			72%	
Cc1cccc(C(=O)NCCC2CCC(C(c3ccc(F)cc3)N(C)C)CC2)c1 (stereo not drawn) [compound 429, N-(2-{4-[dimethylamino-(4-fluoro-phenyl)-methyl]-cyclohexyl}-ethyl)-3-methyl-benzamide]	88%	7.26		
COc1cccc(CC(=O)NCC2CCC(C(c3ccccc3)N(C)C)CC2)c1 (stereo not drawn) [compound 349, N-[4-(dimethylamino-phenyl-methyl)-cyclohexylmethyl]-2-(3-methoxy-phenyl)-acetamide]	89%	7.30		
Cc1cc(C2(O)CCC(C(c3ccc(Cl)cc3)N(C)C)CC2)ccc1F (stereo not drawn) [compound 160, 4-[(4-chloro-phenyl)-dimethylamino-methyl]-1-(4-fluoro-3-methyl-phenyl)-cyclohexanol]			67%	

Compound	inhibition at 1 µM	pKi	inhibition at 1 µM [1]	μ-Opioid receptor, % inhibition [1 μM] (1 µM)
Cc1c(S(=O)(=O)c2ccc(Cl)cc2)csc1C(=O)NC1CCC(C(c2ccccc2)N(C)C)CC1 (stereo not drawn) [compound 233, 4-(4-chloro-benzenesulfonyl)-3-methyl-thiophene-2-carboxylic acid [4-(dimethylamino-phenyl-methyl)-cyclohexyl]-amide]	84%	7.15		
Cc1cc(C(=O)NCC2CCC(C(c3cccs3)N(C)C)CC2)n(C(C)(C)C)n1 (stereo not drawn) [compound 366, 2-tert-butyl-5-methyl-2H-pyrazole-3-carboxylic acid [4-(dimethylamino-thiophen-2-yl-methyl)-cyclohexylmethyl]-amide]	85%	7.25		
Cc1cc(C(=O)NCC2CCC(C(c3ccc(Cl)cc3)N(C)C)CC2)no1 (stereo not drawn) [compound 385, 5-methyl-isoxazole-3-carboxylic acid {4-[(4-chloro-phenyl)-dimethylamino-methyl]-cyclohexylmethyl}-amide]	82%	7.17		
CC(C)S(=O)(=O)c1csc(C(=O)NC2CCC(C(c3cccs3)N(C)C)CC2)c1Cl (stereo not drawn) [compound 221, 3-chloro-4-(propan-2-sulfonyl)-thiophene-2-carboxylic acid [4-(dimethylamino-thiophen-2-yl-methyl)-cyclohexyl]-amide]	88%	7.54		
CSc1ncccc1C(=O)NCCC1CCC(C(c2ccccc2)N(C)C)CC1 (stereo not drawn) [compound 466, N-{2-[4-(dimethylamino-phenyl-methyl)-cyclohexyl]-ethyl}-2-methylsulfanyl-nicotinamide]	86%	7.39		
CN(C)C(c1ccccc1)C1CCC(CCNC(=O)c2cccc(Cl)c2)CC1 (single isomer, unassigned) [compound 397, 3-chloro-N-{2-[4-(dimethylamino-phenyl-methyl)-cyclohexyl]-ethyl}-benzamide]	97%	8.14		
COc1ccc(C(=O)NC2CCC(C(c3ccccc3)N(C)C)CC2)c(OC)c1 (stereo not drawn) [compound 216, N-[4-(dimethylamino-phenyl-methyl)-cyclohexyl]-2,4-dimethoxy-benzamide]	90%	7.25		
Cc1cc(C(=O)NC2CCC(C(c3ccccc3)N(C)C)CC2)n(C(C)(C)C)n1 (stereo not drawn) [compound 247, 2-tert-butyl-5-methyl-2H-pyrazole-3-carboxylic acid [4-(dimethylamino-phenyl-methyl)-cyclohexyl]-amide]		7.44		82%
CN(C)C(c1ccc(F)cc1)C1CCC(CCNC(=O)c2cccc(Cl)c2)CC1 (single isomer, unassigned) [compound 422, 3-chloro-N-(2-{4-[dimethylamino-(4-fluoro-phenyl)-methyl]-cyclohexyl}-ethyl)-benzamide]	83%	7.46		
CN(C)C(c1ccccc1)C1CCC(CNC(=O)c2cncc(Br)c2)CC1 (stereo not drawn) [compound 386, 5-bromo-N-[4-(dimethylamino-phenyl-methyl)-cyclohexylmethyl]-nicotinamide]	82%	7.00		
CN(C)C(c1ccccc1)C1CCC(NC(=O)c2cccs2)CC1 (single isomer, unassigned) [compound 245, thiophene-2-carboxylic acid [4-(dimethylamino-phenyl-methyl)-cyclohexyl]-amide]	82%	7.18		
CN(C)C(c1ccc(Cl)cc1)C1CCC(O)(Cc2ccc(F)cc2)CC1 (stereo not drawn) [compound 172, 4-[(4-chloro-phenyl)-dimethylamino-methyl]-1-(4-fluoro-benzyl)-cyclohexanol]			77%	
CC(=O)N(C(C)Cc1c[nH]c2ccccc12)C1CCC(C(c2ccccc2)N(C)C)CC1 (stereo not drawn) [compound 178, N-(1-(1H-indol-3-yl)propan-2-yl)-N-(4-((dimethylamino)(phenyl)methyl)-cyclohexyl)acetamide]	96%	8.92		
CN(C)C(c1cccs1)C1CCC(NC(=O)CC(C)(C)C)CC1 (stereo not drawn) [compound 200, N-[4-(dimethylamino-thiophen-2-yl-methyl)-cyclohexyl]-3,3-dimethyl-butyramide]	94%	7.54		
COc1c(C(=O)NC2CCC(C(c3cccc(F)c3)N(C)C)CC2)csc1Cl (stereo not drawn) [compound 191, 5-chloro-4-methoxy-thiophene-3-carboxylic acid {4-[dimethylamino-(3-fluoro-phenyl)-methyl]-cyclohexyl}-amide]	99%			
CN(C)C(CCc1ccccc1)C1CCC(NC(=O)c2cccc(Cl)c2)CC1 (stereo not drawn) [compound 241, 3-chloro-N-[4-(1-dimethylamino-3-phenyl-propyl)-cyclohexyl]-benzamide]	82%	7.17		
CN(C)C(c1ccccc1)C1CCC(NC(=O)C2(c3ccc(Cl)cc3)CCCC2)CC1 (stereo not drawn) [compound 184, 1-(4-chloro-phenyl)-cyclopentanecarboxylic acid [4-(dimethylamino-phenyl-methyl)-cyclohexyl]-amide]	101%	8.28		
